Biological target: T1, HIV protease (Human immunodeficiency virus type 1 group M subtype B, UniProt P04585)
T1 construct: the protease expressed in Eschericia coli; made in house; host or cells: Escherichia coli
Assay: Assay for Inhibition of Microbial Expressed Viral Protease
Format: biochemical
Details: protease expressed in Eschericia coli; peptide substrate Val-Ser-Gln-Asn-(betanapthyl)Ala-Pro-lie-Val 0.5 mg/ml; 50 mM Na acetate, pH 5.5, 30° C, 1 hr; HPLC readout
Description: Assay for Inhibition of Microbial Expressed Viral Protease
Inhibition studies of the reaction of the protease expressed in Eschericia coli with a peptide substrate [Val-Ser-Gln-Asn-(betanapthyl)Ala-Pro-lie-Val, 0.5 mg/ml at the time the reaction is initiated] were in 50 mM Na acetate, pH 5.5, at 30° C for 1 hr. Various concentrations of inhibitor in 1.0 ul DMSO were added to 25 ul of the peptide solution in water. The reaction is initiated by the addition of 15 ul of 0.33 nM protease (0.11 ng) in a solution of 0.133 M Na acetate pH 5.5 and 0.267% bovine serum albumin. The reaction was quenched with 160 ul of 5% phosphoric acid. Products of the reaction were separated by HPLC (VYDAC wide pore 5 cm C-18 reverse phase, acetonitrile gradient, 0.1% phosphoric acid). The extent of inhibition of the reaction was determined from the peak heights of the products.

IC50, 0.5 to 10 nM:
CC[C@H](C)[C@H](NC(=O)[C@H](Cc1ccccc1)C[C@H](O)[C@H](Cc1ccccc1)NC(=O)CCC(=O)O)C(=O)NCc1ccccc1 [Compound F, N-benzyl-N'-(succinoyl)-5(S)-amino-4(S)-hydroxy-6-phenyl-2(R)-(phenylmethyl)hexanoyl isoleucyl amide]
O=C(O)CCC(=O)N[C@@H](Cc1ccccc1)[C@@H](O)C[C@@H](Cc1ccccc1)C(=O)N[C@H]1c2ccccc2C[C@H]1O [Compound G, N-(2(R)-hydroxy-1 (S)-indanyl)-N'-(succinoyl)-5(S)-amino-4(S)-hydroxy-6-phenyl-2(R)-(phenylmethyl)-hexanamide]
CS(=O)(=O)N[C@@H](Cc1ccccc1)[C@@H](O)C[C@@H](Cc1ccccc1)C(=O)N[C@H]1c2ccccc2C[C@H]1O [Compound H, N-(2(R)-hydroxy-1 (S)-indanyl)-N'-(methanesulfonyl)-5(S)-amino-4(S)-hydroxy-6-phenyl-2(R)-(phenylmethyl)-hexanamide]
O=C1CC[C@@H](C(=O)N[C@@H](Cc2ccccc2)[C@@H](O)C[C@@H](Cc2ccccc2)C(=O)N[C@H]2c3ccccc3C[C@H]2O)O1 [Compound J, N-(2(R)-hydroxy-1 (S)-indanyl)-N'-(5-oxo-2(S)-tetrahydrofuranylcarbonyl)-5(S)-amino-4(S)-hydroxy-6-phenyl-2(R)-(phenylmethyl)hexanamide]

Source: patent publication EP0356223A2, “HIV protease inhibitors useful for the treatment of aids” (MERCK & CO. INC., priority 1988, dated 1990)
